In PubChem BioAssay (NCI):
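Cells were grown in 96-well plates and exposed to each compound for 48 hours at five concentrations; endpoints were interpolated linearly between bracketing concentrations, or set to the highest concentration if not reached. Definition used: TGI = concentration required for complete inhibition of growth.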

Experiments:
Assay in all cases: NCI anticancer screen, dose series, 48 h
[1] = tested on: SF-539 CNS
[2] = tested on: COLO 205 colon
[3] = tested on: NCI-H522 lung
[4] = tested on: RXF 393 renal
[5] = tested on: MALME-3M melanoma
[6] = tested on: SNB-75 CNS
[7] = tested on: BT-549 breast
[8] = tested on: PC-3 prostate
[9] = tested on: MCF7 breast
[10] = tested on: UO-31 renal

SMILES	TGI [1] [µM]	TGI [2] [µM]	TGI [3] [µM]	TGI [4] [µM]	TGI [5] [µM]	TGI [6] [µM]	TGI [7] [µM]	TGI [8] [µM]	TGI [9] [µM]	TGI [10] [µM]
N#CC1=C(N)N(/N=C/c2ccco2)C(c2ccco2)C1(C#N)C#N (configuration not stated)	48.9	28.9	31.1	25.8	43.4	36.6	34.9	48.5	43.2	34.4
CC[C@]12C=CCN3CC[C@@]4(c5cc(Br)c(OC)cc5N(C)[C@H]4[C@@](O)(C(=O)NC(Cc4c[nH]c5ccccc45)C(=O)OC)[C@@H]1O)[C@@H]32 (some centres not stated)	> 100	21	> 100	98.6	> 100	> 100	> 100	> 100	> 100	> 100
COC(=O)C(=O)C(C(=O)OC)C(=O)C(=O)Nc1c(Cl)cc([N+](=O)[O-])cc1Cl (configuration not stated)	> 100		> 100	> 100	> 100	> 100	> 100	> 100	> 100	> 100
O=c1c2c3c(sc2nc2n1NC=NN2)CCCC3	36.9	55.3	36.4	> 61.9	55.3	59.1	31.8	> 56.7	> 54.2	> 64.3
COc1ccc(-c2nnc3n(C)c4ccccc4n3c2=O)cc1	> 100	> 100	> 100	82.9	> 100	60.4	> 100	> 100	> 100	> 100
Cc1cc(O)c2c(c1)C(C1c3cccc(O)c3C(=O)c3c(O)cc(C)cc31)c1cccc(O)c1C2=O (configuration not stated)	0.556	0.378	3.44	0.861	1.25	0.855	0.94	2.81	1.18	1.78
Fc1ccc(C(OCCN2CCC3CCC(C2)N3C/C=C/c2cccs2)c2ccc(F)cc2)cc1 (configuration not stated)	22.5	12.2	17.7	16.3	18.9	29	25.9	18.7	21.5	24.3
C(=N\NC1=NCCN1)/c1ccc2ccccc2c1	39.4	20.4	29.6	34.6	28.3	> 100	25.3	28.5	32.3	19.9
C(=C/c1nnnn1-c1ccccc1)/Nc1ccccc1	64.7	> 100	81.8	> 100	> 100	> 100	53.9	> 100	64.8	65.9
COc1cc2c[n+](C)c3c4cc(OC)c(OCc5ccccc5)cc4c(OCc4ccccc4)cc3c2cc1OC	11.8	2.97	3.4	41.1	10.7	22.6	9.05	11.1	21.9	> 100
O=c1[nH]c(=O)n(C2CC(O)C(CO)O2)cc1Br (configuration not stated)	> 100	> 100	> 100	> 100	> 100	> 100	> 100	> 100	> 100	> 100
O=c1[nH]cnc2c1cnn2Cc1cnnn1COCCO	> 100	> 100	> 100	> 100	> 100	> 100	> 100	> 100	> 100	> 100
COc1ccc2c(c1)/c(=C/C#N)c1c3ccccc3[n+](C)n21	11.8	8.33	20.4	50.1	14.3	9.21	26.1	11.7	> 55.9	36.9
CSc1ccc2c(c1)c(CCN)c(C)n2Cc1ccccc1Cl	2.26	2.99	3	2.83	3.34	3.04	33.5	2.86	3.11	2.96
O=C1c2cccnc2-c2nccc3c2c1nc1ccccc13	0.544	4.77	0.281	0.459	0.603	1.76	0.618	1.58	0.0858	0.634
CC#CCCCC1(C)CCNC1=S (configuration not stated)	> 10		> 10	> 10	> 10	> 10	> 10	> 10	> 10	> 10
COC(=O)C12Oc3ccc(-c4ccc5c(c4O)C(O)=C4C(=O)CC(C)C(O)C4(C(=O)OC)O5)c(O)c3C(O)=C1C(=O)CC(C)C2O (configuration not stated)	1.35	0.195	0.309	0.935		2.92	8.77	1.43	> 100	0.858
